ChEMBL document CHEMBL1201862, “PubChem BioAssay data set” (2004)
The source made the active and inactive calls.

Tests used:
[1] = biological target: T1, Heat shock factor protein 1 (Mus musculus, UniProt P38532); assay: enhancement of HSF1-driven luciferase signal – cell-based, NIH3T3, luminescence, dose retest, confirmation (AID 435004); assay type: functional;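 note: stress induced by proteasome inhibitor MG132 added 30 min after compound; luciferase reporter driven by HSF1 response element in NIH3T3 cells; actives raise luminescence as potentiators of the MG132 stress response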
T1 sequence (P38532 whole entry): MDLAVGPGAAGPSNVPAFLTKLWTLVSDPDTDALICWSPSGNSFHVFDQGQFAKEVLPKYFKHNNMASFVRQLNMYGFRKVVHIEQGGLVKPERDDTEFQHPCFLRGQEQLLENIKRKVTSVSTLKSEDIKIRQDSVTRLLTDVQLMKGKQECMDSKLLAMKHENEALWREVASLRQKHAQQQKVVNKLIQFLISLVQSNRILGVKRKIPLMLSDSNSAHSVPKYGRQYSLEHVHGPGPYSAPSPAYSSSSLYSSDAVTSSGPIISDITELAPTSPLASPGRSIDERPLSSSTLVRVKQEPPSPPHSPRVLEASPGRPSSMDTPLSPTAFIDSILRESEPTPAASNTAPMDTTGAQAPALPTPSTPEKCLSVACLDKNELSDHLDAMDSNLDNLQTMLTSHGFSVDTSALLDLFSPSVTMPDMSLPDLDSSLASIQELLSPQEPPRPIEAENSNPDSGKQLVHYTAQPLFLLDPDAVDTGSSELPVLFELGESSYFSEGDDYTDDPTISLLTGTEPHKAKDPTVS

[2] = Luminescence Cell-Based Dose Confirmation HTS to Identify Activators of 5'UTR Stem-Loop Driven Alpha-Synuclein mRNA Translation in H4 Neuroglioblastoma Cells. [Related pubchem assays: 1829 (Project Summary), 1814 (Primary HTS)]; assay type: functional
[3] = system: H4; assay: Luminescence Cell-Based Dose Response HTS to Identify Activators of 5'UTR Stem-Loop Driven Prion Protein mRNA Translation in H4 Neuroglioblastoma Cells. [Related pubchem assays: 1829 (Project Summary), 1814 (Primary HTS)]; assay type: functional; conditions: Homo sapiens
[4] = Luminescence Cell-Based Dose Response HTS to Identify Activators of Luciferase Translation or Activity in H4 […] Cells. [Related pubchem assays: 1829 (Project Summary), 1814 (Primary HTS)]; assay type: functional
[5] = biological target: T2, Calpain-2 catalytic subunit (Sus scrofa, UniProt P43367); assay: m-calpain protease blockers, concentration series – biochemical, fluorogenic peptide substrate, dose response (AID 1420); assay type: functional
T2 sequence (P43367 whole entry): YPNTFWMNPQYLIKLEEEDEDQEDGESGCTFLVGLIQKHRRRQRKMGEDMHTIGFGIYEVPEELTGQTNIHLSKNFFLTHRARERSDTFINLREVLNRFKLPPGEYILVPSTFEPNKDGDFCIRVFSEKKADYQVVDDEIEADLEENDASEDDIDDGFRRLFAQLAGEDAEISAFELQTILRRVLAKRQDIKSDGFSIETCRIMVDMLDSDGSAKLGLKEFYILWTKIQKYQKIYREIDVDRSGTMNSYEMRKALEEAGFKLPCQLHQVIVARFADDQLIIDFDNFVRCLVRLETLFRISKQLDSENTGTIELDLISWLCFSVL

[6] = biological target: T3, Short transient receptor potential channel 4 (Mus musculus, UniProt Q9QUQ5); assay: calcium entry via TRPC4 opening agents – cell-based, HEK293 TRPC4/mu-opioid, Fluo-4 calcium, dose response (AID 434937); assay type: functional
T3 sequence (Q9QUQ5 whole entry): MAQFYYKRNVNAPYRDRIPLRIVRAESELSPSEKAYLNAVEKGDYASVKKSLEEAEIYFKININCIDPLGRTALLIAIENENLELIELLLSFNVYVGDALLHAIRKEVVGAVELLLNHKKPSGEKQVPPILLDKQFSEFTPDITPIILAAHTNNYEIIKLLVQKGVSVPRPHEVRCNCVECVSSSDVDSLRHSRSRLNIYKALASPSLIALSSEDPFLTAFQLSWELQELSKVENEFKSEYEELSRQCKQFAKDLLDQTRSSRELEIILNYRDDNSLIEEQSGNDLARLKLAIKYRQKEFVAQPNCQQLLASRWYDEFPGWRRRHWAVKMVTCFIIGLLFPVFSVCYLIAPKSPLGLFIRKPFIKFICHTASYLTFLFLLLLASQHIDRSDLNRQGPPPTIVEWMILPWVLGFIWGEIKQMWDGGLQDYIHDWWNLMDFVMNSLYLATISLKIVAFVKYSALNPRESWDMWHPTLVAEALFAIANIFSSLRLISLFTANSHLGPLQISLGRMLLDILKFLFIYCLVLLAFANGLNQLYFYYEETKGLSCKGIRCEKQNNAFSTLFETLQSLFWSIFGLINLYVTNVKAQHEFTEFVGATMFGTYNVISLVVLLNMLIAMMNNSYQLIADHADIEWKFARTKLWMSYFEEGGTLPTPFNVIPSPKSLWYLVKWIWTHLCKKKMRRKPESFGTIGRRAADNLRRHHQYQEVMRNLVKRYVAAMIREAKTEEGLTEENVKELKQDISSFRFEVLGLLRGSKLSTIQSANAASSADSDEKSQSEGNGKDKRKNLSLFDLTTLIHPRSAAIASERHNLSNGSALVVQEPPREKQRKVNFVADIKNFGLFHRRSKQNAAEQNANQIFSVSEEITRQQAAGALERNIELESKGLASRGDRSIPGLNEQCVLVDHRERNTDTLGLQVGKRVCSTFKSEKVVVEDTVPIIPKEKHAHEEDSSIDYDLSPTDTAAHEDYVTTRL

[7] = viability of uninfected HEp-2 cells – cell-based, HTS, cytotoxicity control for RSV inhibitor project, dose response (AID 2410); assay type: functional; conditions: human respiratory syncytial virus
[8] = NIH3T3 cell viability loss – ATP luminescence, mouse fibroblasts, counter-screen, dose response (AID 2010); assay type: functional, cell-based;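 note: cells exposed to compound for about 90 hours before reading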
[9] = Trypanosoma cruzi growth suppression in host cells – NIH3T3 host cells, beta-gal luminescence, confirmation (AID 2044); assay type: functional, cell-based;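 note: intracellular parasites grown in NIH/3T3 mouse fibroblasts as host cells; luminescent beta-galactosidase reporter signal from transgenic T. cruzi replicating inside host cells; inhibitors lower the luminescence signal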
[10] = biological target: T1, Heat shock factor protein 1; assay: decrease of HSF1-responsive luciferase luminescence – cell-based, NIH3T3, dose retest, confirmation (AID 2382); assay type: functional;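 note: NIH3T3 fibroblasts with HSF1-driven luciferase reporter stressed by proteasome inhibitor MG132; luminescence from HSF1-driven luciferase expression after 8 hours of MG132 stress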
[11] = Luminescence Cell-Based Dose Retest to Confirm Inhibitors of Cancer Stem Cells. [Related pubchem assays (depositor defined):AID2717, AID2721]; assay type: functional; conditions: Homo sapiens
[12] = non-specific 3'UTR reporter inhibition in Clone20-Shn3RL – cell-based, Renilla luciferase, cherry-picked, counter-screen for Shn3 inhibitor project, dose response (AID 624133); assay type: functional
[13] = reduction of Shn3 3'UTR-driven luciferase in osteoblasts – cell-based, Clone20 osteoblasts, firefly luciferase, cherry-picked, dose response (AID 624132); assay type: functional;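 note: firefly luciferase luminescence from reporter carrying the Shn3 3'UTR in osteoblasts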
[14] = loss of viability in HepG2 cells – cell-based, CellTiter-Glo, cherry-picked, cytotoxicity control for Shn3 inhibitor project, dose response (AID 624134); assay type: functional
[15] = cells; assay type: functional
[16] = blockers of HIV-1 envelope-mediated cell-cell fusion – cherry-pick, dose response (AID 652057); assay type: functional, cell-based

## O=C1NC(=O)[C@]2(Cc3ccccc3N3CCN(c4ccccc4)CC32)C(=O)N1Cc1ccccc1 (some centres undefined)
[1]
  EC50: > 260 µM (inactive)

## S=C(NCCc1ccccc1)N1CCc2ccccc2C1
[2]
  EC50: 12.2 µM (active)
[3]
  EC50: 26.3 µM (active)
[4]
  EC50: 9.54 µM (active)

## O=C(COc1ccc(C(=O)c2ccccc2)cc1)NC1CCCCCC1
[5]
  IC50: 22.9 µM (not active)

## Cn1c(CN2CCN(C(=O)c3ccc(F)cc3)CC2)nc2cc([N+](=O)[O-])ccc21
[1]
  EC50: > 260 µM (inactive)

## O=C(CCCCn1c(=O)[nH]c2ccccc2c1=O)NC1CCN(Cc2ccccc2)CC1
[6]
  EC50: 0.376 µM (active)

## COc1c2c(cc3c1C(CC(O)Cc1ccccc1)N(C)CC3)OCO2 (centres undefined)
[6]
  EC50: 2.99 µM (active)

## COC(=O)c1ccccc1N=Nc1c(O)n[nH]c1N
[7]
  CC50: > 50 µM (active)
[6]
  EC50: 2.99 µM (active)

## Cc1cccc(C)c1N(CC(=O)Nc1cc(Cl)ccc1Oc1ccccc1)S(C)(=O)=O
[5]
  IC50: 2.8 µM (not active)

## COc1ccc(CCn2c(=N)c(C(=O)NCC3CCCO3)cc3c(=O)n4cccc(C)c4nc32)cc1 (centres undefined)
[2]
  EC50: > 120 µM (not active)
[8]
  EC50: > 30 µM (not active)
[3]
  EC50: > 120 µM (not active)
[9]
  EC50: 1.2 µM (active)
[4]
  EC50: 34.5 µM (active)

## CN1CCN(c2ccc([N+](=O)[O-])c3cccnc23)CC1
[10]
  EC50: > 195 µM (not active)
[6]
  EC50: 0.004 µM (active)

## COc1ccc(CCNc2oc(COc3ccc(F)cc3)nc2C#N)cc1
[5]
  IC50: 9.9 µM (not active)

## CCN1C(=O)/C(=C/c2nc3ccccc3c(=O)n2-c2ccc(C)cc2)c2ccccc21
[2]
  EC50: 11 µM (active)
[8]
  EC50: > 60 µM (not active)
[3]
  EC50: 49.8 µM (active)
[9]
  EC50: 1.79 µM (active)
[4]
  EC50: > 120 µM (not active)

## CCCCNc1nc(Nc2ccc(C)c(Cl)c2)c2cnn(C)c2n1
[1]
  EC50: > 260 µM (inactive)
[7]
  CC50: 6.78 µM (active)
[11]
  AC50: 9.2 µM (active)

## CCc1ccc(-c2cc(C(=O)NCc3ccccn3)c3ccccc3n2)cc1
[2]
  EC50: 6.99 µM (active)
[3]
  EC50: 11.4 µM (active)
[4]
  EC50: 21.4 µM (active)

## Cn1c(N2CCN(C(=O)Nc3ccc(C(F)(F)F)cc3)CC2)nc2ccccc21
[6]
  EC50: 3.35 µM (active)

## CC(=O)N1N=C(c2ccccc2)CC1c1cn(C)c2ccccc12 (centres undefined)
[2]
  EC50: 9.19 µM (active)
[3]
  EC50: 53 µM (active)
[4]
  EC50: 10.4 µM (active)

## CCOC(=O)C1CCCN(S(=O)(=O)c2cccs2)C1 (centres undefined)
[5]
  IC50: < 0.4 µM (not active)

## Cc1ccc(C(=O)/C=C/c2ccc(-c3ccc(C)cc3)o2)cc1
[12]
  AC50: 14.3 µM (active)
[13]
  AC50: 2.79 µM (active)

## CCOC(=O)c1cn(CC(=O)Nc2cccc(Cl)c2C)nn1
[14]
  AC50: > 70 µM (inactive)
[13]
  AC50: 4.65 µM (active)

## O=C(CCN1CCC(c2cccs2)=N1)c1cccs1
[2]
  EC50: 15.7 µM (active)
[3]
  EC50: 15.5 µM (active)
[15]
  IC50: 35.8 µM (active)
[4]
  EC50: 17.8 µM (active)

## CC12CCC(=O)N1C(C(=O)Nc1cccc3ccccc13)CS2 (centres undefined)
[1]
  EC50: > 260 µM (inactive)

## Cc1cc(C)n(C(=N)NC(=O)c2ccc([N+](=O)[O-])cc2)n1
[2]
  EC50: 18.9 µM (active)
[3]
  EC50: 110 µM (active)
[4]
  EC50: 26.7 µM (active)

## Cc1ccc(CNC(=O)c2cn(C3CCCCC3)c(=O)c3c2c2ccccc2n3C)o1
[1]
  EC50: 51.7 µM (active)
[7]
  CC50: 23.3 µM (active)

## CCOc1ccccc1N(CC(=O)OC)S(=O)(=O)c1ccccc1
[5]
  IC50: 35 µM (not active)

## CCC(=O)Nc1ccc2nn(-c3ccc(F)cc3)nc2c1
[8]
  EC50: > 60 µM (not active)
[1]
  EC50: > 260 µM (inactive)
[9]
  EC50: 4.4 µM (active)

## COc1ccc(OC(=O)c2cnn(-c3ccccc3)c2C)cc1
[2]
  EC50: 9.33 µM (active)
[3]
  EC50: 1.93 µM (active)
[4]
  EC50: 1.26 µM (active)

## CN(CC(=O)N1CCCCCC1)S(=O)(=O)c1ccccc1
[2]
  EC50: 15.4 µM (active)
[3]
  EC50: 18.1 µM (active)
[4]
  EC50: 20.8 µM (active)

## CCn1c(/C=C/Nc2ccccc2)[n+](CC)c2ccc(C(=O)OCC(F)(F)F)cc21
[5]
  IC50: 6.92 µM (not active)

## Cn1c(Sc2ccc(C(F)(F)F)cc2[N+](=O)[O-])nnc1-c1ccccc1
[1]
  EC50: > 260 µM (inactive)

## O=C(CCSc1ccccc1)NC(=O)COC(=O)C1CCCCC1
[5]
  IC50: 6.64 µM (not active)

## Cc1cccc(NC(S)=NCC(c2ccccc2)N(C)C)c1 (centres undefined)
[6]
  EC50: 0.119 µM (active)

## O=C1CC2(CCN(C(=O)c3ccccc3F)CC2)Oc2ccccc21
[12]
  AC50: 30.8 µM (active)
[13]
  AC50: 65.8 µM (active)

## Cc1cc(C)n(CC(O)COc2ccc(Cl)cc2Cl)n1 (centres undefined)
[1]
  EC50: 116 µM (active)

## COc1ccc(NC(=O)c2ccccc2SC)cc1
[5]
  IC50: 8.1 µM (not active)

## O=C(c1c(F)cccc1F)N1CCN(c2ncc(Br)cn2)CC1
[6]
  EC50: 0.596 µM (active)

## COc1ccc(S(=O)(=O)N(C)C[C@H]2Oc3cc(C4=CCCC4)ccc3S(=O)(=O)N([C@@H](C)CO)C[C@H]2C)cc1
[16]
  AC50: 16.4 µM (active)
